From patent US20060135494A1, “Methods of treating injuries of the nervous system associated with hemorrhage” (priority 2002, published 2006)

What was measured:
[1] = Bile acid analysis of serum and brain; type: in vivo, rat; details: single 100 mg/kg bw arterial dose
Source text: (§1) All animals received humane care in compliance with the institute's guidelines as outlined in “Guide for the Care and Use of Laboratory Animals” prepared by the National Academy of Sciences and published by the National Institutes of Health (NIH publication no. 86-23, revised 1985). Female Sprague-Dawley rats (250-300 grams (g); Harlan Sprague-Dawley, Inc., Indianapolis, Ind.) were anesthesized with an intramuscular injection of a mixture of ketamine and xylazine and set in supine in a Kopf headholder. The right carotid artery, external and internal branches, was exposed and the distal end of the external carotid freed and retracted to line with the internal carotid. A PE-10 polyethylene tube (Becton-Dickinson, Sparks, Md.) was then introduced from the external into the internal carotid artery, and the former was ligated to hold the tube. […]
Normal controls and rats with intrastriatal hematoma were sacrificed 1, 3, and 6 hours after TUDCA or vehicle injection. […] Bile acids were assessed by gas chromatography after organic solvent extraction, purification on Lipidex 1000, liquid-solid extraction, hydrolysis, isolation by lipophilic anion exchange chromatography and conversion to methyl ester-trimethylsilyl ether derivatives (Setchell et al., Gastroenterology 1997;112:226-235). Bile acid concentrations were expressed as nmol/g of tissue or as μmol/l of serum.

collagenase-induced ICH = assay: Neurological testing: limb placement / step initiation after ICH; type: in vivo, rat
Source text: as §1
The animals were tested for rotational behavior in response to apomorphine 2 days after surgery. Apomorphine (1 mg/kg bw; Sigma Chemical Co.) was injected subcutaneously, and rotations were determined by a computer-controlled Columbus Instruments Videomex-V system (Columbus, Ohio). […] Step initiation was assessed at 2 days after ICH by independently analyzing stepping behavior in the left and right forelimbs. […] The number of steps initiated by each limb was counted during a 1-minute period.

[2] = tested on: phosphorylated Akt-1 Ser473, phosphorylated Bad Ser-136; assay: Immunoblotting of phosphorylated Akt-1 and phosphorylated Bad in ICH rat brain; type: in vivo
Source text: All animals received humane care in compliance with the institute's guidelines as outlined in “Guide for the Care and Use of Laboratory Animals” prepared by the National Academy of Sciences and published by the National Institutes of Health (NIH publication no. 86-23, revised 1985). Female Sprague-Dawley rats (250-300 grams (g); Harlan Sprague-Dawley, Inc., Indianapolis, Ind.) were anesthesized with an intramuscular injection of a mixture of ketamine and xylazine and set in supine in a Kopf headholder. The right carotid artery, external and internal branches, was exposed and the distal end of the external carotid freed and retracted to line with the internal carotid. A PE-10 polyethylene tube (Becton-Dickinson, Sparks, Md.) was then introduced from the external into the internal carotid artery, and the former was ligated to hold the tube. TUDCA (Calbiochem-Novabiochem Corp., San Diego, Calif.) was dissolved in phosphate buffer, pH 7.4 at 400 milligrams per milliliter (mg/ml). Saline or TUDCA solution (1 milliliter per kilogram body weight (ml/kg bw)) were injected directly into the internal carotid artery, within 5 minutes. […]
Bcl-2 family, NF-κB, IκB, p-Akt, and p-Bad protein levels were determined from total protein homogenates separated by 12% sodium dodecyl sulfate polyacrylamide gel electrophoresis (SDS-PAGE). […]

[3] = tested on: collagenase-induced intrastriatal hemorrhage (ICH); assay: Hematoma (hemorrhagic lesion) volume in collagenase-induced ICH rat model; type: in vivo; details: for Protection (%) ICH core / Protection (%) Peri-ICH: mean ± SEM
Source text: All animals received humane care in compliance with the institute's guidelines as outlined in “Guide for the Care and Use of Laboratory Animals” prepared by the National Academy of Sciences and published by the National Institutes of Health (NIH publication no. 86-23, revised 1985). Female Sprague-Dawley rats (250-300 grams (g); Harlan Sprague-Dawley, Inc., Indianapolis, Ind.) were anesthesized with an intramuscular injection of a mixture of ketamine and xylazine and set in supine in a Kopf headholder. The right carotid artery, external and internal branches, was exposed and the distal end of the external carotid freed and retracted to line with the internal carotid. A PE-10 polyethylene tube (Becton-Dickinson, Sparks, Md.) was then introduced from the external into the internal carotid artery, and the former was ligated to hold the tube. TUDCA (Calbiochem-Novabiochem Corp., San Diego, Calif.) was dissolved in phosphate buffer, pH 7.4 at […] milligrams per milliliter (mg/ml). Saline or TUDCA solution (1 milliliter per kilogram body weight (ml/kg bw)) were injected directly into the internal carotid artery, within 5 minutes. Different concentrations of TUDCA (10, 50, 100, and 200 mg/kg bw) were administered 1 hour prior to, or 1, 3, and 6 hours after collagenase injection. The polyethylene tube was finally removed, the end of the external carotid artery cauterized, and the wound closed. To induce stroke injury, the animals were placed in a stereotaxic apparatus and ICH induced by collagenase infusion (Rosenberg et al., Stroke 1990;21:801-807 and Chesney et al., Stroke 1995;26:312-316). In brief, a midline incision was made through the scalp to expose the skull. […] (0.5 microliters per minute (μL/min)) of saline containing 0.5 unit (U) bacterial collagenase (type VII; Sigma Chemical Co., St. Louis, Mo.) was made stereotaxically into the striatum with a 10-μl Hamilton syringe at the following coordinates: 0.4 millimeter (mm) anterior and 3.0 mm lateral to bregma and 5.0 mm ventral to the cortical surface. Once the infusion was complete, the Hamilton syringe was left in place for 3 minutes. Body temperature was maintained at 37° C. with a CMA/150 temperature controller throughout the surgery. The rats recovered from surgery in a cage containing food and heated by an incandescent light bulb. Neurological testing was performed at 2 days after induction of ICH. The animals were then sacrificed, and the brains removed and frozen at −70° C. for either serial cryostat sectioning, or RNA and protein extraction. In a subset of animals, serum and brain samples were collected for bile acid analysis.
After behavioral testing, rats were sacrificed and the brains removed for serial cryostat sectioning. Volumes of hemorrhagic lesion, including core and peri-ICH regions, were quantitated using unbiased stereologic volumetric analysis of 20-μm cryostat sections after staining according to the Nissl protocol. Volumetric analysis was performed according to Cavalieri's method (Howard et al, Unbiased stereology: three-dimensional measurement in microscopy. New York: BIOS Scientific Publishers Ltd 1998). The areas of lesion were determined in 11 Nissl-stained sections 20 μm in thickness, 900 μm apart, from each animal. Volumes (mm^3) were calculated according to the formula V=T×a/p×ΣPi, where V=volume of interest, T=distance between sections (mm), a/p=area associated with each point (mm^2), and Pi=points hitting object in each section.

[4] = 100 mg/kg bw TUDCA administered at 1 h
[5] = 100 mg/kg bw TUDCA administered at 3 h
[6] = 100 mg/kg bw TUDCA administered at 6 h

SMILES: C[C@H](CCC(=O)NCCS(=O)(=O)O)[C@H]1CC[C@H]2[C@@H]3[C@@H](O)C[C@@H]4C[C@H](O)CC[C@]4(C)[C@H]3CC[C@]12C [TUDCA, tauroursodeoxycholic acid]
- concentration at 3 h ([1]; female, Sprague-Dawley, rat, serum, other: injected directly into the internal carotid artery, 3 hours following injection (from 0.3)): 10.6 µM
- increase in brain concentrations of the bile acid compared with vehicle-injected controls ([1]; 3 hours): 10 fold
- improved motor activity in test of limb placement (collagenase-induced ICH; time-course experiment of TUDCA administration, 2 days after ICH): 25-40%
- steps initiated by left forelimb in 1-minute period versus vehicle (collagenase-induced ICH; unilateral striatal hemorrhage, 2 days): significantly more steps
- levels of phosphorylated Bad compared with untreated sham controls ([2]; brain of rats receiving TUDCA): ~2 fold
- expression of phosphorylated form of Akt-1 ([2]; hemisphere ipsilateral to ICH, TUDCA 10-200 mg/kg bw): largely restored
- hemorrhagic lesions larger in vehicle-injected group compared with TUDCA-treated rats ([3]; 100 mg/kg bw TUDCA 1 hour before collagenase, 2 days): approximately 50%
- protective effect on volume of brain lesioned ([3]; 100 mg/kg bw TUDCA 1 hour before or up to 3 hours after hemorrhage, 2 days): 40-50%
- protective effect on volume of brain lesioned ([3]; 100 mg/kg bw TUDCA 6 hours after collagenase infusion): partially lost but still evident
- Protection (%) ICH core [3, 4]: 47.7 ± 3.2 %
- Protection (%) Peri-ICH [3, 4]: 48.6 ± 3.5 %
- Protection (%) ICH core [3, 5]: 30.0 ± 18.9 %
- Protection (%) Peri-ICH [3, 5]: 42.8 ± 14.9 %
- Protection (%) ICH core [3, 6]: 20.9 ± 12.9%
- Protection (%) Peri-ICH [3, 6]: 38.7 ± 12.9 %
- hemorrhagic lesion volume ([3]; 100 mg/kg bw TUDCA into internal carotid artery 1 hour before collagenase, 2 days after infusion, mean±SEM): 143.9±46.5 mm^3
- reduction in lesion volume ([3]; 200 mg/kg bw TUDCA 1 hour before collagenase, 2 days): ~60%
- protection of lesion volume ([3]; 10 and 50 mg/kg bw dose regimens, 1 hour before collagenase): significantly less protective
